Results published in PubChem BioAssay AID1919002 (Molecular Pharmacology Branch, DTP, NCI, 2023).
Values joined by “and” are separate entries in the source; they are usually repeats but may differ in a detail not shown here. Equal entries are not always repeated.

Tested on: 743489-274-T-PDC complex spheroid growth
Assay: Anticancer human tumor 743489-274-T-PDC patient-derived renal cell carcinoma cell line growth inhibition [AhR]
Conditions: for viability, T/C: stronger effect = lower value
Source text: Multicellular complex tumor spheroid response to aryl hydrocarbon receptor antagonists in combination with a variety of drugs and investigational agents in selected tumor cell lines
The current study was undertaken to assess response to aryl hydrocarbon receptor antagonists in combination with standard-of-care drugs and investigational agents in solid tumor complex spheroid models. Complex spheroids include a stromal component modeled by human endothelial cells (HUVEC) and fibroblasts modeled by human mesenchymal stem cells (MSCs). The concentration ranges selected for each drug and investigational agent were based upon clinically achievable concentrations if the clinical Cmax of the agent was known.
Compounds. The drugs and investigational agents: BAY 2416964 (NSC825713), GNF351 (NSC835774), CH-223191 (NSC835775), CPI-455 (NSC825282), aza-TdCyd (NSC777586), decitabine (NSC127716), belinostat (NSC758774), entinostat (NSC756642), pevonedistat (NSC761192), tazemetostat (NSC777109), talazoparib (NSC765396), olaparib (NSC753686), selinexor (NSC780203), nedisertib (M3814, NSC802822), bortezomib (NSC756655), venetoclax (NSC766270), doxorubicin (NSC123127), elimusertib (BAY189344, NSC800525), ceralasertib (AZD6738, NSC777638), TAK-243 (NSC785004), alisertib (NSC759677), etoposide (NSC141540), topotecan (NSC609699), eribulin (NSC707389), gemcitabine (NSC613327), carboplatin (NSC241240), cisplatin (NSC119875), and SN-38 (NSC673596) were obtained from the National Cancer Institute (NCI) Developmental Therapeutics Program Chemical Repository (32). The FDA-approved anticancer drug set is available from the Developmental Therapeutics Program at https://dtp.cancer.gov/organization/dscb/obtaining/available plates.htm. […] The stock solutions were prepared in dimethyl sulfoxide (DMSO, Sigma-Aldrich, St. Louis, MO, cat. D2650), except for the platinum compounds which were prepared in saline (Quality Biological, Gaithersburg, MD, cat. 114-055-101), at 800-fold the tested concentration and stored at -70 degrees C prior to their use. All drugs and investigational agents were tested over a range starting from a high concentration at or near the clinical Cmax and decreasing in half-log increments. If the clinical Cmax for an agent had not been determined, the highest concentration tested was 10 microM (Table 1).
Cell Culture. All cells were maintained in an incubator at 37 degrees C and 5% CO2 with 95% humidity. The PDC lines were cultured according to standard operating procedures established by the NCI PDMR (https://pdmr.cancer.gov). Briefly, all PDCs were thawed and cultured in Matrigel-coated flasks prepared with a working solution of 1X Ham's F-12 nutrient mix, without supplementation (Invitrogen, Waltham, MA, cat. 11765054), 100 U/mL penicillin-streptomycin (Invitrogen, cat. 15140122), and 2.5% Matrigel (Corning Inc., Corning, NY, cat. 354248) for the first three passages. All PDCs were cultured in complete DMEM/F-12 media containing advanced DMEM/F-12 (Invitrogen, cat. 12634028), 4.9% defined fetal bovine serum, heat inactivated (HyClone Laboratories Inc., Logan, UT, cat. SH30070.03HI), 389 ng/mL hydrocortisone (Sigma-Aldrich, cat. H4001), 9.7 ng/mL human EGF recombinant protein (Invitrogen, cat. PHG0313), 23.4 microg/mL adenine (Sigma-Aldrich, cat. A2786), 97.3 U/mL penicillin-streptomycin (Invitrogen, cat. 15140122), 1.9 mM L-glutamine (Invitrogen, cat. 25030081), and 9.7 microM Y-27632 dihydrochloride (Tocris Bioscience, Bristol, United Kingdom, cat. 1254). The PDCs were cultured in complete DMEM/F12 media without 10 microM Y-27632 dihydrochloride for at least two passages prior to the screen. The established cell lines NCI-H1341 and […] were cultured in DMEM/F-12, HEPES (Invitrogen, cat. 11330032), 5% defined fetal bovine serum (HyClone Laboratories Inc., cat. SH30070.03), ITS premix universal culture supplement [insulin (5 microg/mL), transferrin (5 microg/mL), and selenious acid (5 ng/mL)] […]
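Note: spheroids exposed to agents for 7 days before readout.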
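Throughout, for viability, T/C: 100% = DMSO vehicle control wells.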

IC50 (curve of compound)	Compound	viability, T/C (compound 0.0316 µM)	viability, T/C (compound 0.1 µM)	viability, T/C (compound 0.316 µM)	viability, T/C (compound 1 µM)	viability, T/C (compound 3.16 µM)	viability, T/C (compound 10 µM)	other results
> 1 µM	CC1COCCN1c1cc(-c2ccnn2C)c2ccnc(-c3ccn[nH]3)c2n1 (centres undefined)	101% (2×) and 104%	106% and 102% and 103%	101% and 86.3% and 100%	85.1% and 68% and 73.8%	–	–	viability, T/C (compound 0.00316 µM): 112% and 105% and 104%; viability, T/C (compound 0.01 µM): 106% and 114% and 100%
> 0.1 µM	CC[C@@]1(O)C(=O)OCc2c1cc1n(c2=O)Cc2cc3c(CN(C)C)c(O)ccc3nc2-1	95% and 105% and 97.2%	96.3% and 83.8% and 91.8%	–	–	–	–	viability, T/C (compound 0.000316 µM): 109% and 97.4% and 106%; viability, T/C (compound 0.001 µM): 110% and 94.7% and 90.2%; viability, T/C (compound 0.00316 µM): 107% and 97.5% and 93.5%; viability, T/C (compound 0.01 µM): 100% and 103% and 93.5%
> 0.3 µM	CCc1c2c(nc3ccc(O)cc13)-c1cc3c(c(=O)n1C2)COC(=O)[C@]3(O)CC	–	–	–	–	–	–	viability, T/C (compound 0.000949 µM): 105% and 85% and 104%; viability, T/C (compound 0.003 µM): 105% and 102% and 103%; viability, T/C (compound 0.00949 µM): 102% and 85.4% and 107%; viability, T/C (compound 0.03 µM): 83% and 70.5% and 95.8%; viability, T/C (compound 0.0949 µM): 77.1% and 65.4% and 83.9%; viability, T/C (compound 0.3 µM): 68.5% and 50.5% and 59.9%
> 10 µM	COc1cc(C2c3cc4c(cc3C(OC3OC5COC(C)OC5C(O)C3O)C3COC(=O)C23)OCO4)cc(OC)c1O (centres undefined)	98.8% and 103% and 94.7%	105% and 103% and 102%	95.7% and 114% and 106%	94.6% and 100% and 98.3%	95.8% and 108% and 98.9%	80% and 91.7% and 92.8%	–
> 10 µM	COc1cc(Nc2ncc3c(n2)-c2ccc(Cl)cc2C(c2c(F)cccc2OC)=NC3)ccc1C(=O)O	106% and 98.6% and 103%	105% and 95.3% and 116%	92% and 95.6% and 98.8%	91.3% and 90.4% and 99.3%	90.3% and 92.1% and 91.2%	102% and 87.5% and 94.5%	–

The remaining lines, values behind:

Compound	IC50 (curve of compound)	viability, T/C (compound 0.0316 µM)	viability, T/C (compound 0.1 µM)	viability, T/C (compound 0.316 µM)	viability, T/C (compound 1 µM)	viability, T/C (compound 3.16 µM)	viability, T/C (compound 10 µM)	other results
CC(C)CC(NC(=O)C(Cc1ccccc1)NC(=O)c1cnccn1)B(O)O (centres undefined)	0.0513 µM and 0.0249 µM and 0.019 µM	–	–	–	–	–	–	viability, T/C (compound 0.000949 µM): 99.1% and 101% and 98%; viability, T/C (compound 0.003 µM): 95.6% and 109% and 101%; viability, T/C (compound 0.00949 µM): 106% and 110% and 101%; viability, T/C (compound 0.03 µM): 82.7% and 39.1% and 17.3%; viability, T/C (compound 0.0949 µM): 12.9% and 18.7% and 11.8%; viability, T/C (compound 0.3 µM): 11.7% and 8.88% and 4.65%
CC(C)c1c(-c2ccccc2)nc2c(C#N)c[nH]n2c1=O	> 10 µM	110% and 112% and 107%	110% and 105% and 109%	101% (2×) and 103%	109% and 104% and 112%	107% and 106% and 111%	101% and 107% and 102%	–
CC(CO)NC(=O)c1cc(-c2ccc(Cl)cc2)nn(-c2cnn(C)c2)c1=O (centres undefined)	–	–	–	90% [middle of 21 runs]	–	–	–	IC50 (compound alone, run of 08/08/2022): > 10 µM
CC1(C)CCC(CN2CCN(c3ccc(C(=O)NS(=O)(=O)c4ccc(NCC5CCOCC5)c([N+](=O)[O-])c4)c(Oc4cnc5[nH]ccc5c4)c3)CC2)=C(c2ccc(Cl)cc2)C1	> 10 µM	109% and 96.8% and 101%	112% and 106% and 103%	112% (2×) and 103%	109% and 106% (2×)	120% and 117% and 108%	117% and 96.9% and 109%	–
CC1COCCN1c1cc(C2(S(C)(=N)=O)CC2)nc(-c2ccnc3[nH]ccc23)n1 (centres undefined)	> 10 µM	101% (2×) and 98.1%	109% and 103% and 97.3%	101% and 110% and 96.7%	94.8% and 103% and 108%	98.2% and 102% and 104%	99.1% and 92% and 114%	–
CCN(c1cc(-c2ccc(CN3CCOCC3)cc2)cc(C(=O)NCc2c(C)cc(C)[nH]c2=O)c1C)C1CCOCC1	> 3 µM	–	–	–	–	–	–	viability, T/C (compound 0.00949 µM): 107% and 101% and 108%; viability, T/C (compound 0.03 µM): 102% and 103% and 122%; viability, T/C (compound 0.0949 µM): 102% and 86.6% and 107%; viability, T/C (compound 0.3 µM): 102% and 99.9% and 101%; viability, T/C (compound 0.949 µM): 94.9% and 104% and 108%; viability, T/C (compound 3 µM): 102% and 91% and 101%
COc1ccc([C@@H](O)c2cc(-c3ncnc4cc(N5CCOCC5)ccc34)c(F)cc2Cl)nn1	7.94 µM and 3.03 µM and 4.53 µM	107% and 116% and 95%	105% and 102% and 106%	94.2% and 93.8% and 101%	93.3% and 90.2% and 84.6%	65% and 45.8% and 61.5%	46.3% and 26% and 26.9%	–
